The results in this text go back to publication PMC9965906, “Discovery and Development Strategies for SARS-CoV-2 NSP3 Macrodomain Inhibitors” (Pathogens, 2023).

A word on the IC50: it is the concentration that inhibits the measured activity by half.

The experiment addresses SARS-CoV-2 NSP3 Mac1 (Severe acute respiratory syndrome coronavirus 2, UniProt P0DTD1). The experiment is described as follows: biochemical. It counts as binding. Particulars: for inhibition at 125 µM: read-out: Inhibition at top concentration of 125 µM (%); for IC50 in µM / IC50: top concentration 125 µM, 8-point 1:1 dilution, duplicate; for IC50: read-out: IC50; for inhibition at 25 µM: MIDAS compound library primary screen.

Setting [1] is: MIDAS hit compounds and analogues, 125 µM.
Where [2] appears, read: MIDAS hit compounds and analogues.

Structures are written as SMILES. Values joined by “and” are separate entries in the source; they are usually repeats but may differ in a detail not shown here. Identical values can stand only once. Like-named read-outs stand apart in the source and are kept apart here.

`CC(C)n1ncc2c(C(=O)N3CCCC(C)(O)C3)cc(-c3cccs3)nc21` (stereo not shown) [IAL-MD0086, CC(C)N1N=CC=2C(=CC(=NC12)C3=CC=CS3)C(=O)N4CCCC(C)(O)C4]: the inhibition at 125 µM under setting [1] was 47.7%. Under setting [2], the “IC50 in µM” value is reported as “Not measurable”.
The corresponding values for `CC1CN(C(=O)c2cc(-c3cccs3)nc3c2cnn3C(C)C)C(C)(C)CO1` (stereo not shown) [IAL-MD0087, CC(C)N1N=CC=2C(=CC(=NC12)C3=CC=CS3)C(=O)N4CC(C)OCC4(C)C] are 22.3% and “Not measurable”.
As to `COc1ccc(-c2cc(C(=O)N(C)C)c3ccccc3n2)cc1` [IAL-MD0088, COC=1C=CC(=CC1)C=2C=C(C(=O)N(C)C)C=3C=CC=CC3N2], under setting [1], the inhibition at 125 µM turned out to be 79.4%. For the same compound, the half-inhibitory concentration (IC50) under setting [2] turned out to be 24 µM.
Regarding `O=C(O)c1cc(-c2ccc(OC(F)F)cc2)nc2ccccc12` [IAL-MD0089, OC(=O)C=1C=C(N=C2C=CC=CC12)C=3C=CC(OC(F)F)=CC3], the inhibition at 125 µM under setting [1] came out at 5.7%. Besides, the “IC50 in µM” value under setting [2] is “Not measurable”.
For `CC(C)n1ncc2c(C(=O)Nc3ccn(C)n3)cc(-c3cccs3)nc21` [IAL-MD0090, CC(C)N1N=CC=2C(=CC(=NC12)C3=CC=CS3)C(=O)NC=4C=CN(C)N4], in that order: 11% and “Not measurable”.
The corresponding values for `CCn1ncc2c(C(=O)NCCNC(C)=O)cc(-c3cccs3)nc21` [IAL-MD0092, CCN1N=CC=2C(=CC(=NC12)C3=CC=CS3)C(=O)NCCNC(=O)C] are 17.1% and “Not measurable”.
Take `CCCN(CC(=O)Nc1ccccc1C)C(=O)c1cc(-c2cccs2)nc2c1cnn2CC` [IAL-MD0093, CCCN(CC(=O)NC=1C=CC=CC1C)C(=O)C=2C=C(N=C3N(CC)N=CC23)C4=CC=CS4]: under setting [1], the inhibition at 125 µM was found to be 7.7%. For the same compound, the “IC50 in µM” value under setting [2] is reported as “Not measurable”.
With `COc1ccc(-c2cc(C(=O)O)c3ccccc3n2)cc1OC` [IAL-MD0094, COC=1C=CC(=CC1OC)C=2C=C(C(=O)O)C=3C=CC=CC3N2], the inhibition at 125 µM under setting [1] amounted to 31.9%. The “IC50 in µM” value under setting [2] was “Not measurable”.
The corresponding values for `CC(C#N)NC(=O)c1cc(-c2cccs2)nc2c1cnn2C(C)C` (stereo not shown) [IAL-MD0095, CC(C)N1N=CC=2C(=CC(=NC12)C3=CC=CS3)C(=O)NC(C)C#N] are 19.8% and “Not measurable”.
As to `CCn1ncc2c(C(=O)N3CCCC(C)C3)cc(-c3ccccc3)nc21` (stereo not shown) [IAL-MD0096, CCN1N=CC=2C(=CC(=NC12)C=3C=CC=CC3)C(=O)N4CCCC(C)C4], the inhibition at 125 µM under setting [1] was determined as 3.9%. Moreover, under setting [2], the “IC50 in µM” value is “Not measurable”.
The corresponding values for `CCn1ncc2c(C(=O)Nc3ccc(C(N)=O)cc3)cc(-c3cccs3)nc21` [IAL-MD0097, CCN1N=CC=2C(=CC(=NC12)C3=CC=CS3)C(=O)NC=4C=CC(=CC4)C(=O)N] are 7.7% and “Not measurable”.
With `CCCNC(=O)c1cc(-c2ccc(OC)cc2)nc2ccccc12` [IAL-MD0098, CCCNC(=O)C=1C=C(N=C2C=CC=CC12)C=3C=CC(OC)=CC3], the inhibition at 125 µM under setting [1] was 22%. Besides, the “IC50 in µM” value under setting [2] is reported as “Not measurable”.
For `COc1ccc(-c2cc(C(=O)NCC(F)(F)F)c3ccccc3n2)cc1` [IAL-MD0099, COC=1C=CC(=CC1)C=2C=C(C(=O)NCC(F)(F)F)C=3C=CC=CC3N2], in that order: 22.2% and “Not measurable”.
The corresponding values for `COc1ccc(-c2cc(C(=O)Nc3cccnc3)c3ccccc3n2)cc1` [IAL-MD0100, COC=1C=CC(=CC1)C=2C=C(C(=O)NC=3C=CC=NC3)C=4C=CC=CC4N2] are 15.9% and “Not measurable”.
For `COc1ccc(-c2cc(C(=O)Nc3cccc(S(=O)(=O)N(C)C)c3)c3ccccc3n2)cc1` [IAL-MD0101, COC=1C=CC(=CC1)C=2C=C(C(=O)NC=3C=CC=C(C3)S(=O)(=O)N(C)C)C=4C=CC=CC4N2], in that order: 25.2% and “Not measurable”.
For the compound `COc1ccc(-c2cc(C(=O)NC3CC3)c3ccccc3n2)cc1` [IAL-MD0103, COC=1C=CC(=CC1)C=2C=C(C(=O)NC3CC3)C=4C=CC=CC4N2], the inhibition at 125 µM under setting [1] came to 38.4%. Moreover, under setting [2], the “IC50 in µM” value is on record as “Not measurable”.
The corresponding values for `CC(C)n1ncc2c(C(=O)N(C)Cc3cccc(O)c3)cc(-c3cccs3)nc21` [IAL-MD0104, CC(C)N1N=CC=2C(=CC(=NC12)C3=CC=CS3)C(=O)N(C)CC=4C=CC=C(O)C4] are 18.4% and “Not measurable”.
The corresponding values for `CC(C)n1ncc2c(C(=O)N3CCC(C)(CO)CC3)cc(-c3cccs3)nc21` [IAL-MD0106, CC(C)N1N=CC=2C(=CC(=NC12)C3=CC=CS3)C(=O)N4CCC(C)(CO)CC4] are 32.1% and “Not measurable”.
`CC(C)n1ncc2c(C(=O)N3CCC(C)(O)CC3)cc(-c3cccs3)nc21` [IAL-MD0107, CC(C)N1N=CC=2C(=CC(=NC12)C3=CC=CS3)C(=O)N4CCC(C)(O)CC4]: the inhibition at 125 µM under setting [1] was 40.5%. The “IC50 in µM” value under setting [2] is listed as “Not measurable”.
Consider `CC(CNC(=O)c1cc(-c2cccs2)nc2c1cnn2C(C)C)N1CCCCC1` (stereo not shown) [IAL-MD0108, CC(C)N1N=CC=2C(=CC(=NC12)C3=CC=CS3)C(=O)NCC(C)N4CCCCC4], for which the inhibition at 125 µM under setting [1] was found to be 60.5%. Further, the IC50 under setting [2] was 68 µM and 67.8 µM.
Consider `CCn1ncc2c(C(=O)N(Cc3ccccn3)C(C)C)cc(-c3ccccc3)nc21` [IAL-MD0109, CCN1N=CC=2C(=CC(=NC12)C=3C=CC=CC3)C(=O)N(CC=4C=CC=CN4)C(C)C], for which the “Inhibition at top concentration of 125 µM (%)” value (from here on “Inhibition … (%)”) under setting [1] is reported as “Not measurable”. Further, the “IC50 in µM” value under setting [2] was “Not measurable”.
Take `O=C(c1ccc(NCC2CC2)nc1)N1CCC(c2c[nH]c3ncccc23)CC1` [IAL-MD0110, O=C(N1CCC(CC1)C2=CNC=3N=CC=CC23)C=4C=CC(NCC5CC5)=NC4]: the inhibition at 125 µM under setting [1] is 7.8%. The “IC50 in µM” value under setting [2] is “Not measurable”.
The corresponding values for `CC1(C(=O)N2CCCC(c3c[nH]c4ncccc34)C2)CCC(=O)NC1` (stereo not shown) [IAL-MD0114, CC1(CCC(=O)NC1)C(=O)N2CCCC(C2)C3=CNC=4N=CC=CC34] are 13.4% and “Not measurable”.
The corresponding values for `CNC(=O)c1ccc(C(=O)N2CCC(c3c[nH]c4ncccc34)CC2)cn1` [IAL-MD0115, CNC(=O)C=1C=CC(=CN1)C(=O)N2CCC(CC2)C3=CNC=4N=CC=CC34] are 9.3% and “Not measurable”.
The corresponding values for `COCCN(CC(N)=O)C(=O)c1cc(-c2cccs2)nc2c1c(C)nn2C` [IAL-MD0116, COCCN(CC(=O)N)C(=O)C=1C=C(N=C2N(C)N=C(C)C12)C3=CC=CS3] are 55.8% and “Not measurable”.
With `CCn1ncc2c(C(=O)NCc3ccc(OC)nc3)cc(-c3cccs3)nc21` [IAL-MD0117, CCN1N=CC=2C(=CC(=NC12)C3=CC=CS3)C(=O)NCC=4C=CC(OC)=NC4], the inhibition at 125 µM under setting [1] is 9.7%. The “IC50 in µM” value under setting [2] is reported as “Not measurable”.
The corresponding values for `COc1ccc(-c2cc(C(=O)Nc3ccc4ccccc4c3)c3ccccc3n2)cc1` [IAL-MD0118, COC=1C=CC(=CC1)C=2C=C(C(=O)NC=3C=CC=4C=CC=CC4C3)C=5C=CC=CC5N2] are 25.6% and “Not measurable”.
For `CCn1ncc2c(C(=O)NC(C)c3ccccn3)cc(-c3cccs3)nc21` (stereo not shown) [IAL-MD0119, CCN1N=CC=2C(=CC(=NC12)C3=CC=CS3)C(=O)NC(C)C=4C=CC=CN4], in that order: 6.3% and “Not measurable”.
The corresponding values for `CCn1ncc2c(C(=O)NC(C)c3ccncc3)cc(-c3cccs3)nc21` (stereo not shown) [IAL-MD0120, CCN1N=CC=2C(=CC(=NC12)C3=CC=CS3)C(=O)NC(C)C=4C=CN=CC4] are 8.9% and “Not measurable”.
For the compound `Cc1nn(C)c2nc(-c3cccs3)cc(C(=O)NC3CCOCC3)c12` [IAL-MD0121, CC1=NN(C)C=2N=C(C=C(C(=O)NC3CCOCC3)C12)C4=CC=CS4], the inhibition at 125 µM under setting [1] is 17.8%. Under setting [2], the “IC50 in µM” value is “Not measurable”.
For `CC(C)n1ncc2c(C(=O)N3CCNC(=O)C3)cc(-c3ccccc3)nc21` [IAL-MD0123, CC(C)N1N=CC=2C(=CC(=NC12)C=3C=CC=CC3)C(=O)N4CCNC(=O)C4], the inhibition at 125 µM under setting [1] worked out at 1.8%. For the same compound, the “IC50 in µM” value under setting [2] is “Not measurable”.
Take `Cc1ccc(Cn2ncc3c(C(=O)N4CCNC(=O)C4)cc(C)nc32)cc1` [IAL-MD0124, CC=1C=CC(CN2N=CC=3C(=CC(C)=NC23)C(=O)N4CCNC(=O)C4)=CC1]: the “Inhibition … (%)” value under setting [1] was “Not measurable”. The “IC50 in µM” value under setting [2] was “Not measurable”.
`CCOc1ccc2c(C)c(C(=O)N[C@@H]3CCNC[C@H]3O)oc2c1OCC` [IAL-MD0127, O=C(C(O1)=C(C)C2=C1C(OCC)=C(OCC)C=C2)N[C@H]3[C@H](O)CNCC3.[H]Cl]: the inhibition at 25 µM was 40% and the inhibition at 125 µM was found to be 66.5%. For the same compound, the IC50 under setting [2] was found to be 38 µM.
Turning to `Cn1ccc2c(-c3ccc(C(=O)N4CCCCC4)cn3)ccnc21` [IAL-MD0128, O=C(C1=CN=C(C2=C3C(N(C)C=C3)=NC=C2)C=C1)N4CCCCC4], the inhibition at 25 µM was 58%. Moreover, under setting [1], the “Inhibition … (%)” value was “Not measurable due to compound precipitation”. The IC50 under setting [2] was ~3.1 µM and 3.1 µM. The “assay effects in dose-response titration” value (MIDAS hits and analogues, higher compound concentrations) is listed as “assay interference effects at higher compound concentrations”.
`CN1CCC(Cn2ccnc2-c2ccc(-c3ccccc3C#N)o2)C1` (stereo not shown) [IAL-MD0129, N#CC1=CC=CC=C1C2=CC=C(C3=NC=CN3CC4CN(C)CC4)O2] registered an inhibition at 25 µM of 55%. For the same compound, under setting [1], the “Inhibition … (%)” value is on record as “Not measurable due to compound precipitation”. Moreover, the IC50 under setting [2] was found to be 14.2 µM.
Turning to `CC(C)NC(=O)c1ccc(-c2ccnc3c2ccn3C)o1` [IAL-MD0130, O=C(NC(C)C)C1=CC=C(C2=C3C(N(C)C=C3)=NC=C2)O1], under setting [1], the “Inhibition … (%)” value is on record as “Not measurable due to compound precipitation”. The IC50 under setting [2] was 7.6 µM.
